Each structure is given as a SMILES string.

One data set concerns SU-DHL-6 cells. The data set is described as follows: Annexin V-FITC/PI flow cytometry apoptosis assay. Type of data set: cell-based, human. The note with it: 6 nM, 48 h. The procedure: The pro-apoptotic effect of the PM/HP-β-CD complex on SU-DHL-6 cells was investigated by flow cytometry. […] cells in good condition were collected and inoculated in the six-well plate with 2⋄10^5 cells per well. After being cultured for 24 h, cells were treated with PM and PM/HP-β-CD inclusion at 3 nM and 6 nM, using LBH589 at 6 nM as the positive control. The cells without drug treatment were the negative control. After 48 h incubation, the cells were then processed by annexin V-FITC/PI staining as the manufacturer’s instructions (KeyGen, 100 assays).

Data set [1] has as its system human double-hit lymphoma SU-DHL-6 xenograft tumours. Type of data set: in vivo. The note with it: positive control groups, dose column – (RTX 10 mg/kg). The procedure:
To better determine the anti-tumour activity of the PM/HP-β-CD complex, the SU-DHL-6 cell line xenografts were established in immunodeficiency mice. The NOD/SCID mice were subcutaneously inoculated 7 × 10^6 cells per mouse. […] A mimic of HyperCVAD regimen, standard chemotherapy for B cell lymphoma ([22],[23]), especially aggressive subtypes, for example, double-hit lymphoma, was set as a positive control group for comparison (Table 2). Satellite groups were set up in the 10 mg/kg group, 20 mg/kg group, and the Hyper-CVAD group. Animals in the satellite groups were not sacrificed at the end of the treatment and underwent long-term treatment for further investigation. In the survival study, the animal mortality criterion was that the tumour volume reached 3000 mm^3 or the individual animal died, and the animal survival time was statistically analysed.
When the experimental period was over, the tumour was weighed and photographed, the main organs and tumours were collected, fixed, and embedded in paraffin for Histological and immunohistochemical analysis.

With `Cc1[nH]c2ccccc2c1CCNCc1ccc(/C=C/C(=O)NO)cc1` [LBH589, reference compound], in the data set on SU-DHL-6 cells, the “apoptotic SU-DHL-6 cells” value was found to be 60.1%. Also, in data set [1] (14 days), the RTV came out at 26.54, the “Tumour volume T/C%” value was determined as 101.83%, the “Tumour weight (g) X ± SD” value is 3.81 ± 1.08 g and the “Tumour weight Inhibition (%)” value is 22.72%. Also, the “Tumour volume (mm^3) X ± SD Begin” value in data set [1] (begin of treatment) worked out at 152.7 ± 30.6 mm^3. Also, in data set [1] (end of 14 days treatment), the “Tumour volume (mm^3) X ± SD End” value is reported as 4015.5 ± 1048.0 mm^3. Further, in data set [1] (regimens Table 2, 14 days), the “Number End/begin” value is 7/7.
